{
  "source": "paper PMC4564450",
  "about": "“Oral and inhaled p38 MAPK inhibitors: effects on inhaled LPS challenge in healthy subjects” (European Journal of Clinical Pharmacology, 2015)",
  "key": {"[1]": {"tested_on": "IL-6, MCP-1, MIP1β, CC16, fibrinogen and CRP levels in plasma", "assay": "Inhaled LPS challenge: plasma protein biomarkers", "type": "in vivo, human", "details": "study 3", "quoted_text": "Blood samples were obtained in studies 2 and 3 to obtain plasma measurements of IL-6, MCP-1, MIP1β, CC16, fibrinogen and CRP levels; pre-dose and 6 h post-LPS samples were used for statistical analysis. This coincided with the timings of sputum measurements of inflammation biomarkers.\nSystemic biomarkers were analysed using a similar mixed effects model; these models also adjusted for pre-dose baseline values, which were obtained 24 h prior to LPS challenge in study 2 and 30 min prior to LPS challenge in study 3."}, "[2]": {"tested_on": "IL-6, MPO, MCP-1 and MIP-1β in sputum supernatant", "assay": "Inhaled LPS challenge: sputum supernatant protein biomarkers", "type": "in vivo, human", "details": "study 3", "quoted_text": "A baseline sputum sample was obtained within 14 days of the first study period when subjects were administered a single dose of randomised treatment. […] Induced sputum was obtained 6 h later to coincide with the maximal inflammatory response caused by inhaled LPS. A washout period of at least 21 days followed, with subjects returning after 14 days of the washout period for induced sputum sampling; this was performed to ensure that the total cell count, total neutrophil count and total macrophage count were within the range of −80 to +100 % of the screening values. […] If these criteria were not met, then up to two repeat visits to obtain sputum were allowed, with at least 4 days between sputum inductions. The next randomised treatment day was scheduled at least 4 days after sputum induction and was identical to the first treatment day.\nSputum was induced using normal saline after inhalation of salbutamol, and processing was performed using dithiothreitol (DTT) as previously described [20]. The supernatants were stored at −80 °C for later analysis, while cells were used to produce cytoslides (Cytospin 4, Shandon, Runcorn, UK) for differential cell counting and immunocytochemistry. Cytoslides for differential cell count were fixed in methanol (Sigma) and then stained with Rapi-Diff® (GCC Diagnostics, Sandyhurst, UK) or Wright-modified Giemsa (Accustatin WG-18, Sigma-Aldrich); a minimum of 400 non-squamous cells were counted and differential cell counts obtained as percentage of total non-squamous cells. Cell viability was analysed by trypan blue exclusion. Cytoslides with % squamous cell counts <20 % were deemed to be of acceptable quality for differential cell counting. Unfixed cytoslides were wrapped in aluminium foil and stored frozen at −80 °C for immunocytochemistry.\nIn studies 1 and 2, sputum supernatants were analysed for interleukin 6 (IL-6), myeloperoxidase (MPO), monocyte chemotactic protein-1 (MCP-1) and macrophage inflammatory protein-1β (MIP-1 β), using electrochemiluminescent immunoassays (ECLIA) or enzyme-linked immunosorbent assays (ELISA); the manufacturers are listed in the online supplement. In study 3, sputum supernatants were analysed for IL-6, MCP-1 and MIP-1β by the same method."}, "[3]": {"assay": "Plasma pharmacokinetics (sparse sampling)", "type": "in vivo, human", "details": "study 3, fluticasone 500 μg inhaled"}, "[4]": {"set-up": "method as in PMID 12373268", "details": "single inhaled dose; cited from earlier work"}, "[5]": {"tested_on": "sputum neutrophils and macrophages after inhaled LPS", "assay": "Inhaled LPS challenge in healthy subjects: induced sputum cell counts", "type": "in vivo, human", "details": "study 3", "procedure": "Three randomised, double-blind, placebo-controlled crossover studies were performed; the effects of a single dose of active treatment was investigated in all three studies. […] Studies 2 and 3 were conducted at two UK centres: Quintiles Drug Research Unit, London, and Medicines Evaluation Unit, Manchester. […] The studies were performed during the following time periods: study 1, Sep 2006–Mar 2008; study 2, Jan 2011–Dec 2011; and study 3, Jul 2011–Jan 2012. The design of all three studies was similar. A baseline sputum sample was obtained within 14 days of the first study period when subjects were administered a single dose of randomised treatment. […] Induced sputum was obtained 6 h later to coincide with the maximal inflammatory response caused by inhaled LPS. […] This criterion was used to ensure that sputum cell counts after LPS challenge had returned to close to the original baseline values; this was done to reduce data variability between treatment periods. […] For each challenge, a 1-mg vial of lyophilised LPS (Escherichia coli serotype O26:B6, ref. L-2654, Sigma-Aldrich, Dorset, UK) was diluted with 4 mL of 0.9 % w/v sodium chloride. The reconstitution produced a 0.25 mg/mL solution, of which 2 mL was placed into the pre-calibrated dosimeter pot and administered via five inhalations from a breath-activated dosimeter (Mefar dosimeter MB3, Brescia, Italy). Each inhalation was performed over 3 s with a 6-s breath hold. […] Sputum was induced using normal saline after inhalation of salbutamol, and processing was performed using dithiothreitol (DTT) as previously described. The supernatants were stored at −80 °C for later analysis, while cells were used to produce cytoslides (Cytospin 4, Shandon, Runcorn, UK) for differential cell counting and immunocytochemistry. […] Cell viability was analysed by trypan blue exclusion. Cytoslides with % squamous cell counts <20 % were deemed to be of acceptable quality for differential cell counting. Unfixed cytoslides were wrapped in aluminium foil and stored frozen at −80 °C for immunocytochemistry. Sputum neutrophil percentage was the primary endpoint for all three studies. The neutrophil percentage was modelled using a mixed effects analysis of covariance (ANCOVA) model appropriate for a two-period, two-treatment or three-period, three-treatment crossover design. The fixed effects in the model were treatment and period. Subjects were modelled as a random effect. Additionally, the period-specific baseline was modelled as a covariate. This model was used for all sputum inflammatory markers, including the immunohistocytochemistry, where cell counts were log transformed before analyzing the data and percent differentials were not transformed. […] Ninety percent confidence intervals of the difference (non-transformed data) or the ratio (log-transformed data) were constructed based on the ANCOVA model."}, "[6]": {"details": "oral, 12-week treatment; cited from earlier work"}, "[7]": {"tested_on": "airway inflammation after LPS challenge", "set-up": "method as in PMID 17045826", "details": "oral, 6-day treatment; cited from earlier work"}, "[8]": {"details": "fluticasone 500 μg inhaled, 6 hrs post LPS"}, "[9]": {"details": "fluticasone propionate 500 μg inhaled"}, "[10]": {"details": "fluticasone 500 μg inhaled, post LPS"}, "[11]": {"details": "fluticasone 500 μg inhaled, post LPS, ANCOVA model mean"}},
  "data": [
    {"smiles": "CCC(=O)O[C@]1(C(=O)SCF)[C@H](C)C[C@H]2[C@@H]3C[C@H](F)C4=CC(=O)C=C[C@]4(C)[C@@]3(F)[C@@H](O)C[C@@]21C", "note": "[fluticasone propionate, reference compound]", "values": [
      {"measurement": "Plasma CC16, mean", "setting": "[1]; [8]", "value": 10.51, "unit": "ng/mL"},
      {"measurement": "Plasma CRP, mean", "setting": "[1]; [8]", "value": 708.10, "unit": "ng/mL"},
      {"measurement": "Plasma Fibrinogen, mean", "setting": "[1]; [8]", "value": 2058.00, "unit": "µg/mL"},
      {"measurement": "Plasma IL-6, mean", "setting": "[1]; [8]", "value": 23.30, "unit": "pg/mL"},
      {"measurement": "Plasma MCP-1, mean", "setting": "[1]; [8]", "value": 401.70, "unit": "pg/mL"},
      {"measurement": "Plasma MIP-1β, mean", "setting": "[1]; [8]", "value": 76.95, "unit": "pg/mL"},
      {"measurement": "systemic biomarkers compared to placebo", "setting": "[1]; [9]", "value": "no effect"},
      {"measurement": "Sputum IL-6, mean", "setting": "[2]; [10]", "value": 200.97, "unit": "pg/mL"},
      {"measurement": "Sputum MCP-1, mean", "setting": "[2]; [10]", "value": 133.79, "unit": "pg/mL"},
      {"measurement": "Sputum MIP-1β, mean", "setting": "[2]; [10]", "value": 1157.87, "unit": "pg/mL"},
      {"measurement": "sputum cytokine measurements compared to placebo", "setting": "[2]; [9]", "value": "no effects"},
      {"measurement": "Plasma concentration", "setting": "[3]; 1.5 h", "value": "56.0 (29.4) pg/mL"},
      {"measurement": "Plasma concentration", "setting": "[3]; 6.5 h", "value": "37.31 (15.1) pg/mL"},
      {"measurement": "effects of bronchial challenges in asthma", "setting": "[4]", "value": "significantly inhibit"},
      {"measurement": "Mean (SD) sputum neutrophil percentage", "setting": "[5]; fluticasone 500 μg inhaled single dose, 6 h post-LPS", "value": "70.0 (12.9) %"},
      {"measurement": "Macrophage Differential in sputum", "setting": "[5]; [11]", "value": 27.53, "unit": "%"},
      {"measurement": "Total Cell Count in sputum", "setting": "[5]; [11]", "value": "3.02e+06", "unit": "g⁻¹"},
      {"measurement": "Total Macrophage Count in sputum", "setting": "[5]; [11]", "value": 820000, "unit": "g⁻¹"},
      {"measurement": "Total Neutrophil Count in sputum", "setting": "[5]; [11]", "value": "2.04e+06", "unit": "g⁻¹"},
      {"measurement": "sputum neutrophil percentage post-LPS challenge compared to placebo", "setting": "[5]; fluticasone propionate 500 μg inhaled single dose, p = 0.55", "value": "not changed significantly"},
      {"measurement": "Total Cell Count in sputum, Ratio of Means active/placebo", "setting": "[5]; post LPS", "value": 0.90},
      {"measurement": "Total Macrophage Count in sputum, Ratio of Means active/placebo", "setting": "[5]; post LPS", "value": 0.93},
      {"measurement": "Total Neutrophil Count in sputum, Ratio of Means active/placebo", "setting": "[5]; post LPS", "value": "no effects"},
      {"measurement": "Macrophage Differential in sputum, difference between the active treatment mean and the placebo mean", "setting": "[5]; post LPS, footnote: difference, not ratio", "value": 2.04, "unit": "%"},
      {"measurement": "Total Neutrophil Count in sputum, Ratio of Means active/placebo", "setting": "[5]; post LPS, listed as Fluticasone", "value": 0.66}
    ]},
    {"smiles": "Cc1c(F)cc(C(=O)NC2CC2)cc1-c1ccc(C(=O)NCC(C)(C)C)cn1", "note": "[losmapimod, reference compound]", "values": [
      {"measurement": "sputum neutrophil counts in COPD patients", "setting": "[6]", "value": "failed to reduce"}
    ]},
    {"smiles": "C[C@]12C=CC(=O)C=C1CC[C@@H]1[C@@H]2[C@@H](O)C[C@@]2(C)[C@H]1CC[C@]2(O)C(=O)CO", "note": "[prednisolone]", "values": [
      {"measurement": "airway inflammation in an LPS challenge study", "setting": "[7]", "value": "no effect"},
      {"measurement": "plasma CRP levels in an LPS challenge study", "setting": "[7]", "value": "suppressed"}
    ]}
  ]
}
